Experimental data reported in US20190382346A1, “(NITRO-PHENYL)-NITROPYRIDINE COMPOUNDS FOR TREATING SYNUCLEINOPATHIES” (UNIVERSITAT AUTONOMA DE BARCELONA, priority 2017, published 2019).

Experiments:
[1] = target: T1, human wild-type α-synuclein (Homo sapiens, UniProt P37840); test: α-synuclein aggregation and thioflavin-T assay; assay type: biochemical
T1 construct: made in house; host or cells: E. coli BL21 (DE3)
Protocol: (§1) Previously lyophilized α-synuclein was carefully dissolved in PBS buffer to a final concentration of 210 μM and filtered through a Millipore s 0.22-μm filter. α-synuclein aggregation assay was performed in a 96 wells plate (non-treated, black plastic) containing in each well a Teflon polyball (3.175 mm in diameter), 40 μM thioflavin-T, 70 μM α-synuclein, 100 μM of the tested compound and PBS up to a final volume of 150 μL. Plates were fixed into an orbital culture shaker Max-Q 4000 Thermo Scientific to keep the incubation at 37° C., 100 rpm. Every 2 hours, the fluorescence intensity was measured using a Victor3.0 Multilabel Reader by exciting the mixtures with 430-450 filter and collecting the emission intensity with 480-510 filter (triplicates for each measurement). Each plate contained 3 α-synuclein controls in the absence of any compound. The averaged Th-T fluorescence obtained for these wells at the end of the experiment was normalized to 1 and the kinetic curves in the different wells re-scaled accordingly. Re-scaled curves were used to compare the controls with the effect of the tested compound and to ensure that the controls were reproducible between different experiments. For the titration assay, different concentrations of tested compound (200, 150, 100, 75 and 25 μM) were used. For the scattering assay, 70 μM α-synuclein, 100 μM of the tested compound or DMSO (in control samples) and PBS up to a final volume of 1 mL were incubated in low-binding plastic tubes (Protein LoBind Tube 1.5 mL, Eppendorf) using a thermomixer (Thermomixer comfort, Eppendorf) at 37° C. and 600 rpm. After 2 weeks, scattering of the samples was analyzed at 300 nm and 340 nm using a Varian fluorimeter.
Each sample was tested in triplicate. Each plate contained an also triplicated control without tested compound.
In the aggregation assay described above, α-synuclein aggregates within approximately 24 h with a sigmoidal aggregation curve.

[2] = target: T2, α-synuclein fibrils (Homo sapiens, UniProt P37840); test: Transmission Electron Microscopy of α-synuclein fibrils at end of aggregation reaction; assay type: biochemical; conditions: end of the aggregation reaction
T2 construct: made in house; host or cells: E. coli BL21 (DE3)
Protocol: α-synuclein fibers from final point reaction (either in absence or presence of the final concentration inhibitors) were collected in Eppendorfs. After diluting the aggregated α-synuclein to a concentration of 10 μM α-synuclein, each sample was sonicated for 10 minutes. 5 μL of these samples were placed on carbon-coated copper grids and allowed to stand for 5 minutes. Then, samples were carefully dried with filter paper to remove the excess of sample. Grids were washed twice with MiliQ water by immersion and stained by incubating grids with 5 μL 2% (w/v) uranyl acetate for 2 minutes for the negative staining. After removal of the uranyl acetate excess with filter paper, grids were let to air-dry for 10 minutes. The samples were imaged using a Jeol 1400 Transmission Electron Microscopy operating at an accelerating voltage of 120 kV. 30 fields were screened at least, to obtain representative images.

[3] = target: T1, human wild-type α-synuclein; test: α-synuclein aggregation scattering assay; assay type: biochemical; conditions: 100 μM compound, 70 μM α-synuclein, 2 weeks, 37° C., 600 rpm
Protocol: as §1, with “For the titration assay, different concentrations of tested compound (200, 150, 100, 75 and 25 μM) were used. For the scattering assay, 70 μM α-synuclein, 100 μM of the tested compound or DMSO (in control samples) and PBS up to a final volume of 1 mL were incubated in low-binding plastic tubes (Protein LoBind Tube 1.5 mL, Eppendorf) using a thermomixer (Thermomixer comfort, Eppendorf) at 37° C. and 600 rpm.” left out, “fluorimeter. […]” for “fluorimeter.”

[4] = target: T3, human A30P mutant α-synuclein (Homo sapiens, UniProt P37840, A30P); test: thioflavin-T aggregation assay, A30P mutant; assay type: biochemical; conditions: 100 μM compound, 70 μM α-synuclein, 24 h
T3 construct: made in house; host or cells: E. coli BL21 (DE3)
Protocol: as §1, with “For the titration assay, different concentrations of tested compound (200, 150, 100, 75 and 25 μM) were used. For the scattering assay, 70 μM α-synuclein, 100 μM of the tested compound or DMSO (in control samples) and PBS up to a final volume of 1 mL were incubated in low-binding plastic tubes (Protein LoBind Tube 1.5 mL, Eppendorf) using a thermomixer (Thermomixer comfort, Eppendorf) at 37° C. and 600 rpm.” left out, “fluorimeter. […] Every 2 hours, the thioflavin-T fluorescence intensity was measured as described above.” for “fluorimeter.”

[5] = tested on: human wild-type α-synuclein fused to yellow fluorescent protein (YFP); test: C. elegans α-synuclein aggregation model; assay type: in vivo; conditions: 10 μM compound, 5 days from L4 stage, strain NL5901
Protocol: α-synuclein aggregation was assessed using an C. elegans in vivo model described by (Van Ham et al., 2008) and (Muñoz-Lobato et al., 2014).
The nematode strain NL5901, unc-119(ed3) III; [pkls2386 (Punc-54::α-syn::yfp; unc-119(+))] was obtained from the Caenorhabditis elegans Genetic Center (CGC), University of Minnesota, USA. The strain expresses a fusion of human wildtype α-synuclein and yellow fluorescent protein (YFP) in body wall muscle cells. The nematodes were maintained using standard procedures, grown in NGM agar plates and fed with E coli (OP50 strain). Adult worms were bleached to get synchronized nematode cultures. NGM-agar plates with a) DMSO only (vehicle) and b) 10 μM final concentration of the tested compound were prepared. Afterwards, OP50 containing a) or b) was added to NGM plates and let dry for 24 h. […] After 5 days of development (L4+5) the numbers of α-synuclein aggregates were determined using a fluorescence microscope. […] The same section in each animal was analyzed and captured in stacks to include aggregates contained from the top to the bottom of each animal ([…], 25 stacks). Image analysis was performed using ImageJ software, from the Z MAX acquisition, quantifying the number of α-synuclein-YFP aggregates. Final quantification and statistics was performed by the Graph Pad Prism 6.0 software, comparing vehicle-treated worms with drug-treated animals. […]

[6] = target: T4, human H50Q mutant α-synuclein (Homo sapiens, UniProt P37840, H50Q); test: thioflavin-T aggregation assay, H50Q mutant; assay type: biochemical; conditions: 100 μM compound, 70 μM α-synuclein, 24 h
T4 construct: made in house; host or cells: E. coli BL21 (DE3)
Protocol: as §1, with “For the titration assay, different concentrations of tested compound (200, 150, 100, 75 and 25 μM) were used. For the scattering assay, 70 μM α-synuclein, 100 μM of the tested compound or DMSO (in control samples) and PBS up to a final volume of 1 mL were incubated in low-binding plastic tubes (Protein LoBind Tube 1.5 mL, Eppendorf) using a thermomixer (Thermomixer comfort, Eppendorf) at 37° C. and 600 rpm.” left out, “fluorimeter. […] Every 2 hours, the thioflavin-T fluorescence intensity was measured as described above.” for “fluorimeter.”

[7] = in vitro; assay type: cell-based; conditions: human
Protocol: Cultured cells of human neuroblastoma cell line SH-SY5Y were incubated for 72 h with either the vehicle (DMSO) or with different concentrations of the compound. Then, the cells were incubated with a cell viability indicator (PrestoBlue® Cell Viability Reagent). The modification of PrestoBlue® Cell Viability Reagent by the reducing environment of viable cells turns the dye red in color becoming highly fluorescent. This color change can be detected measuring fluorescence by exciting at 531 nm and detecting emission at 615 nm. The CC50 of compound D (concentration that caused death in 50% of the cells, i.e. reduction to 50% viability) was >700 μM (FIG. 6).

[8] = 70 μM α-synuclein, 100 μM compound, 37° C.

In the case of N#Cc1c(O)nc(-c2cccc([N+](=O)[O-])c2)c([N+](=O)[O-])c1C(F)(F)F [compound D, 2-hydroxy-5-nitro-6-(3-nitrophenyl)-4-(trifluoromethyl)nicotinonitrile], the “delay of halftime of aggregation relative to the control” value [1, 8] is reported as 3 h, the “inhibition of α-synuclein aggregation at the end of the aggregation reaction relative to the control (thioflavin-T fluorescence)” value [1, 8] is reported as 32.4% and the “anti-aggregation activity in titration assays” value ([1]; 200, 150, 100, 75 and 25 μM compound, 70 μM α-synuclein) is reported as “clear dose-dependent anti-aggregation activity”. The “k1 (nucleation rate constant), Finke-Watzky two-step model” value ([1]; fitted aggregation curves) was “decreased”, the “k2 (growth rate constant), Finke-Watzky two-step model” value ([1]; fitted aggregation curves) was “decreased” and the “activity at sub-stoichiometric protein:compound ratios” value ([1]; titration assay, 70 μM α-synuclein) was “showed activity”. The “number and size of α-synuclein fibrils compared to control (TEM)” value [2] was “significant decrease in both number and size of α-synuclein fibrils”, the “inhibition of human wild-type α-synuclein aggregation (scattering at 300 nm and 340 nm)” value [3] was “inhibits” and the “inhibition of human A30P mutant α-synuclein aggregation (thioflavin-T fluorescence)” value [4] was “inhibits”. The “α-synuclein-YFP protein inclusions in muscle cells of the worms” value [5] was “significantly decreased”, the “inhibition of human H50Q mutant α-synuclein aggregation (thioflavin-T fluorescence)” value [6] was “inhibits” and the CC50 at 72 h [7] was > 700 µM.
